The nature of this data set: typical duration of codlemone in the intended environment (stabilization of insect pheromone). Conditions: dissipation into the intended environment; codling moth pheromone, nonstabilized vs stabilized with 2,2′-Methylenebis(6-t-butyl-p-cresol). The data set is classed as physicochemical. An excerpt: Because the insect pheromone can be provided in a stabilized format, a long lasting delivery system may be engineered to provide slow release over a long duration of time. The stabilized format allows for a slow release from a single application without spiking as may be obtainable from multiple applications. “Spiking” as used herein may be triggered by instantaneous or short-term release of the active agents from the shell. Since a mating cycle of a given insect pest may last up to 4-6 weeks in length, the slow release of an insect pheromone may be desirable to provide effective control of insect mating over the duration. Thus, the present invention may be used to control the release rate of insect pheromones thereby effectively controlling and disrupting the mating behavior of the species in a particular intended environment. For example, an insect pheromone for codling moth can be made to steadily dissipate into the intended environment over the duration of a mating cycle for codling moth. A typical duration for a nonstabilized codlemone, the insect pheromone for the codling moth is less than 1 week, as against about 6 weeks for codlemone stabilized according to the present invention.

Take `C/C=C/C=C/CCCCCCCO` [nonstabilized codlemone, E,E-8,10 C12 alcohol]: the typical duration entry is “less than 1 week”.

(Values after patent US6540991B2, “Stabilized active materials” (3M Innovative Properties Company, priority 2001, dated 2003).)
